Results on eleven compounds are retold here after PubChem BioAssay (NCI).

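Grown in 96-well plates, cells were treated for 48 hours with each compound at five concentrations. Insufficient inhibition: endpoint recorded as highest concentration tested. GI50: concentration for 50% inhibition of growth. TGI: concentration producing complete growth inhibition.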 *1 amine or outer side, *2 acyl side, *3 side chain or, on linkers, in order; H or OH if unused. Where a SMILES comes first, the peptide text is derived from it. [ ]: non-standard residue; d: D form. ξ: configuration not given here. X21 = CC[C@@H](C)C(N[*:1])C(=O)[*:2]; ξR = N=C(N)NCCCC(N)C(=O)O; ξI = CCC(C)C(N)C(=O)O; ξL = CC(C)CC(N)C(=O)O; ξK = NCCCCC(N)C(=O)O; ξV = CC(C)C(N)C(=O)O; ξA = CC(N)C(=O)O Bounds are passed on as bounds.

Among the test systems are U251 CNS; CCRF-CEM leukemia; IGROV1 ovarian; NCI-H522 lung; RXF 393 renal; 786-0 renal; NCI-H23 lung.
Holding throughout (assay): inhibition of tumour cell growth, NCI panel, 48 h

With `COc1ccccc1-c1cc(=O)c2ccc(OC)c(OC)c2o1`, the TGI in the test on U251 CNS, in the test with CCRF-CEM leukemia, with IGROV1 ovarian, in the test on NCI-H522 lung, with RXF 393 renal and in the test on 786-0 renal was greater than 100 µM throughout. This compound also had a TGI with NCI-H23 lung greater than 100 µM.

Take `CN(C)CCCn1c2nc(=O)[nH]c(=O)c-2nc2cc(Cl)c(Cl)cc21`: the GI50 in the test with U251 CNS is 3.08 µM; in the test on CCRF-CEM leukemia it was 3.81 µM; with IGROV1 ovarian, 4.65 µM; in the test with NCI-H522 lung it was 2.1 µM; in the test with RXF 393 renal, 13.2 µM; in the test with 786-0 renal it was 8.79 µM. Further, the GI50 with NCI-H23 lung was 8.04 µM. In addition, the TGI in the test on U251 CNS is 10.5 µM; in the test on CCRF-CEM leukemia, 18.7 µM; in the test on IGROV1 ovarian, 13.9 µM; with NCI-H522 lung, 4.23 µM; in the test with RXF 393 renal it was 26.3 µM; in the test with 786-0 renal, 23.2 µM. The same compound showed a TGI in the test on NCI-H23 lung of 23.5 µM.

Consider `COc1ccc2c(c1)C1(C(=O)N2)C(C#N)=C(c2ccccc2)Nc2c1c(-c1ccccc1)nn2-c1ccccc1` (stereo not drawn), for which the GI50 in the test on U251 CNS is 2.8 µM; in the test with CCRF-CEM leukemia, 2.9 µM; in the test with IGROV1 ovarian it was 3.57 µM; with NCI-H522 lung, 3.75 µM; with RXF 393 renal, 1.93 µM; in the test on 786-0 renal, 2.03 µM. In addition, in the test with NCI-H23 lung, the GI50 is 2.51 µM. Moreover, the TGI in the test with U251 CNS was determined as 7.12 µM; in the test on CCRF-CEM leukemia, 10.4 µM; with IGROV1 ovarian, 16.4 µM; in the test on NCI-H522 lung, 18.3 µM; with RXF 393 renal, 5.3 µM; in the test on 786-0 renal it was 4.94 µM. For the same compound, the TGI in the test with NCI-H23 lung was 7.51 µM.

Consider `COc1ccc(/C=C/NC=O)cc1`, for which the TGI with U251 CNS, in the test with CCRF-CEM leukemia, in the test with IGROV1 ovarian, in the test with NCI-H522 lung, in the test with RXF 393 renal and in the test with 786-0 renal was greater than 100 µM throughout. This compound also registered a TGI with NCI-H23 lung greater than 100 µM.

For `N#C/C(=C\c1ccc(Br)cc1)n1nnc2ccccc21`, the GI50 with U251 CNS was 1.1 µM; in the test with CCRF-CEM leukemia, 0.357 µM; with IGROV1 ovarian, 0.317 µM; with NCI-H522 lung it was 0.191 µM; in the test on RXF 393 renal it was 0.427 µM; in the test on 786-0 renal it was 0.501 µM. Further, in the test on NCI-H23 lung, the GI50 was 1.44 µM. In addition, the TGI in the test with U251 CNS is 2.67 µM; in the test on CCRF-CEM leukemia it was 16.6 µM; in the test on IGROV1 ovarian it was 1.43 µM; in the test with NCI-H522 lung, 1.25 µM; in the test on RXF 393 renal, 1.94 µM; with 786-0 renal, 1.79 µM. Further, the TGI with NCI-H23 lung came to 4.2 µM.

As for `CNCCCNCCCN1C(=O)c2ccc3c4c(ccc(c24)C1=O)C(=O)N(CCCNCc1ccccc1OC)C3=O`, the GI50 in the test with U251 CNS is 1.61 µM; with CCRF-CEM leukemia it was 0.465 µM; with IGROV1 ovarian, 1.45 µM; with NCI-H522 lung it was 1.23 µM; in the test on RXF 393 renal, 1.89 µM; with 786-0 renal, 1.27 µM. In addition, the GI50 in the test with NCI-H23 lung is 1.26 µM. Also, the TGI in the test on U251 CNS is 7.67 µM; in the test with CCRF-CEM leukemia, 4.53 µM; with IGROV1 ovarian it was 6.04 µM; in the test on NCI-H522 lung it was 2.83 µM; with RXF 393 renal it was 5.71 µM; in the test on 786-0 renal, 4.56 µM. The TGI with NCI-H23 lung came out at 4.12 µM.

With `CCC(C)C1NC(=O)C(CC(C)C)NC(=O)C(C)NC(=O)C(C(C)C)NC(=O)C(CCCCN)NC(=O)C(CC(C)C)NC(=O)C(C(C)C)NC(=O)[C@H](C)NC(=O)C(C(C)CC)NC(=O)C(CCCN=C(N)N)NC(=O)C(CCCCN)NC(=O)C(CCCN=C(N)N)NC(=O)C(CCCCN)NC(=O)C([C@H](C)CC)NC(=O)C(CCCCN)NC1=O` (stereo partly drawn) (cyclo(A[ξV][ξL][ξK][ξV][ξA][ξL][ξI][ξK][X21][ξK][ξR][ξK][ξR][ξI])), the GI50 is 1.5 µM with U251 CNS; 1.43 µM in the test on CCRF-CEM leukemia; 1.62 µM with IGROV1 ovarian; 1.45 µM with NCI-H522 lung; 1.52 µM with RXF 393 renal; 1.62 µM with 786-0 renal. For the same compound, the GI50 in the test with NCI-H23 lung is 0.43 µM. Further, the TGI with U251 CNS was 3.44 µM; in the test on CCRF-CEM leukemia, 5.07 µM; in the test with IGROV1 ovarian, 4.55 µM; with NCI-H522 lung, 3.88 µM; in the test on RXF 393 renal, 2.96 µM; in the test on 786-0 renal, 3.17 µM. The TGI in the test on NCI-H23 lung turned out to be 2.22 µM.

Consider `Cc1[nH]nc2c1N=C(c1ccccc1Cl)c1cc([N+](=O)[O-])ccc1N2`, for which the GI50 with U251 CNS is 0.511 µM; in the test with CCRF-CEM leukemia it was 0.76 µM; with IGROV1 ovarian, greater than 8.07 µM; in the test on NCI-H522 lung, 0.139 µM; in the test with RXF 393 renal, 0.245 µM; in the test with 786-0 renal, 1.35 µM. The GI50 in the test with NCI-H23 lung was 5.06 µM. The TGI in the test with U251 CNS is greater than 25 µM; in the test on CCRF-CEM leukemia it was greater than 25 µM; in the test on IGROV1 ovarian it was greater than 25 µM; with NCI-H522 lung it was greater than 25 µM; with RXF 393 renal, 1.92 µM; in the test on 786-0 renal, greater than 17.1 µM. Also, the TGI in the test on NCI-H23 lung is greater than 25 µM.

With `CC1(C)CC2(C)CC1CC2NC(=O)CCN1CCOCC1` (stereo not drawn), the TGI with U251 CNS, in the test with CCRF-CEM leukemia, in the test with IGROV1 ovarian, in the test with NCI-H522 lung, in the test on RXF 393 renal and in the test with 786-0 renal was greater than 100 µM throughout. The compound also showed a TGI in the test with NCI-H23 lung greater than 100 µM.

`O=C(Nc1cccc(-n2cc(-c3ccncc3)c(-c3ccc(O)c(Cl)c3)n2)c1)Nc1cccc(C(F)(F)F)c1`: the GI50 was 1.4 µM in the test on U251 CNS; 2.12 µM in the test on CCRF-CEM leukemia; 2.47 µM in the test with IGROV1 ovarian; 1.55 µM in the test with NCI-H522 lung; 1.19 µM in the test on RXF 393 renal; 2.15 µM with 786-0 renal. Moreover, the GI50 in the test with NCI-H23 lung was 2.59 µM. Also, the TGI with U251 CNS was 4.8 µM; in the test with CCRF-CEM leukemia, 7.92 µM; with IGROV1 ovarian, 5.98 µM; in the test on NCI-H522 lung, 4.31 µM; in the test with RXF 393 renal, 4.05 µM; in the test on 786-0 renal, 9.2 µM. In the test on NCI-H23 lung, this compound returned a TGI of 8.81 µM.

As to `CC(C)Nc1ncc2cc(Oc3ccc(F)cc3F)c(=O)n(C)c2n1`, the GI50 in the test with U251 CNS was greater than 25 µM; in the test on CCRF-CEM leukemia, greater than 25 µM; with IGROV1 ovarian it was greater than 25 µM; in the test with NCI-H522 lung, greater than 25 µM; in the test on RXF 393 renal, 12.7 µM; with 786-0 renal, greater than 25 µM. In addition, the GI50 in the test on NCI-H23 lung was greater than 25 µM. The TGI with U251 CNS, in the test on CCRF-CEM leukemia, in the test with IGROV1 ovarian, with NCI-H522 lung, in the test with RXF 393 renal and in the test on 786-0 renal was greater than 25 µM throughout. In addition, the TGI in the test on NCI-H23 lung is greater than 25 µM.
